What was measured:
[1] = target: T1, BRD4 bromo domain 1 [BRD4(1)] (Homo sapiens, UniProt O60885); test: BRD4/acetylated peptide H4 binding assay (TR-FRET), BRD4 bromo domain 1; settings: inhibition of BRD4(1)/Ac-H4 peptide interaction
T1 construct: N-terminally His6-tagged BRD4(1) (amino acids 67-152); made in house; host or cells: E. coli
Description: (§1) Protein-Protein Interaction Assay: BRD4/Acetylated Peptide H4 Binding Assay
To assess the BRD4(1) binding strength of the substances described in this application, the ability thereof to inhibit the interaction between BRD4(1) and acetylated histone H4 in a dose-dependent manner was quantified.
(§2) For this purpose, a time-resolved fluorescence resonance energy transfer (TR-FRET) assay was used, which measures the binding between N-terminally His6-tagged BRD4(1) (amino acids 67-152) and a synthetic acetylated histone H4 (Ac-H4) peptide with sequence GRGK(Ac)GGK(Ac)GLGK(Ac)GGAK(Ac)RHGSGSK-biotin. The recombinant BRD4(1) protein produced in-house according to Filippakopoulos et al., Nature, 2010, 468:1119-1123 and Cell, 2012, 149:214-231, was expressed in E. coli and purified by means of (Ni-NTA) affinity and (Sephadex G-75) size exclusion chromatography. The Ac-H4 peptide can be purchased, for example, from Biosyntan (Berlin, Germany).
(§3) In the assay, typically 11 different concentrations of each substance (0.1 nM, 0.33 nM, 1.1 nM, 3.8 nM, 13 nM, 44 nM, 0.15 μM, 0.51 μM, 1.7 μM, 5.9 μM and 20 μM) were analysed as duplicates on the same microtitre plate. For this purpose, 100-fold concentrated solutions in DMSO were prepared by serial dilutions (1:3.4) of a 2 mM stock solution into a clear, 384-well microtitre plate (Greiner Bio-One, Frickenhausen, Germany). From this, 50 nl were transferred into a black test plate (Greiner Bio-One, Frickenhausen, Germany). The test was started by the addition of 2 μl of a 2.5-fold concentrated BRD4(1) solution (final concentration typically 10 nM in the 5 μl of reaction volume) in aqueous assay buffer [50 mM HEPES pH 7.5, 50 mM sodium chloride (NaCl), 0.25 mM CHAPS and 0.05% serum albumin (BSA)] to the substances in the test plate. This was followed by a 10-minute incubation step at 22° C. for the pre-equilibration of putative complexes between BRD4(1) and the substances.
(§4) The mixture was then incubated in the dark at 22° C. for one hour and then at 4° C. for at least 3 hours and for no longer than overnight. The formation of BRD4(1)/Ac-H4 complexes was determined by the measurement of the resonance energy transfer from the streptavidin-Eu cryptate to the anti-6His-XL665 antibody present in the reaction. For this purpose, the fluorescence emission was measured at 620 nm and 665 nm after excitation at 330-350 nm in a TR-FRET measuring instrument, for example a Rubystar or Pherastar (both from BMG Lab Technologies, Offenburg, Germany) or a Viewlux (Perkin-Elmer). The ratio of the emissions at 665 nm and at 622 nm was taken as an indicator of the amount of BRD4(1)/Ac-H4 complexes formed.
(§5) The data (ratios) obtained were normalized, with 0% inhibition corresponding to the mean from the measurements for a set of controls (typically 32 data points) in which all the reagents were present. In these, in place of test substances, 50 nl of DMSO (100%) were used. Inhibition of 100% corresponded to the mean from the measurements for a set of controls (typically 32 data points) in which all the reagents except BRD4(1) were present. The IC50 was determined by regression analysis based on a 4-parameter equation (minimum, maximum, IC50, Hill; Y=max+(min−max)/(1+(X/IC50)Hill)).

[2] = target: T2, BRD4 bromo domain 2 [BRD4(2)] (Homo sapiens, UniProt O60885); test: BRD4/acetylated peptide H4 binding assay (TR-FRET), BRD4 bromo domain 2; settings: inhibition of BRD4(2)/Ac-H4 peptide interaction
T2 construct: N-terminally His6-tagged BRD4(2) (amino acids 357-445); made in house; host or cells: E. coli
Description: as §1
To assess the BRD4(2) binding strength of the substances described in this application, the ability thereof to inhibit the interaction between BRD4(2) and acetylated histone H4 in a dose-dependent manner was quantified.
as §2, with “BRD4(2)” for “BRD4(1)”, “357-445)” for “67-152)”, “SGRGK(Ac)GGK(Ac)GLGK(Ac)GGAK(Ac)RHRKVLRDNGSGSK-biotin.” for “GRGK(Ac)GGK(Ac)GLGK(Ac)GGAK(Ac)RHGSGSK-biotin.”
as §3, with “concentrated BRD4(2)” for “concentrated BRD4(1)”, “typically 100” for “typically 10”, “chloride (NaCl); 50 mM potassium fluoride (KF);” for “chloride (NaCl),”, “between BRD4(2)” for “between BRD4(1)”, “substances. Subsequently, 3 μl of a 1.67-fold concentrated solution (in assay buffer) consisting of Ac-H4 peptide (83.5 nM) and TR-FRET detection reagents [83.5 nM anti-6His-XL665 (Cisbio Bioassays, Codolet, France) and 12.52 nM streptavidin-Eu), (Perkin Elmer, #W1024)] in assay buffer were added.” for “substances.”
as §4, with “BRD4(2)/Ac-H4” for “BRD4(1)/Ac-H4”, “chelate” for “cryptate”
as §5, with “BRD4(2)” for “BRD4(1)”

IC50 [1] [µM]	IC50 [2] [µM]	Structure (SMILES)
0.256	0.133	C[C@@H]1C(=O)N(C)c2ccc(Nc3cccc(S(=O)(=O)N4CCN(C)CC4)c3)nc2N1C1CCN(C(=O)OC(C)(C)C)CC1 [Example 62, tert-butyl 4-[(3R)-1,3-dimethyl-6-({3-[(4-methylpiperazin-1-yl)sulphonyl]phenyl}-amino)-2-oxo-2,3-dihydropyrido[2,3-b]pyrazin-4(1H)-yl]piperidine-1-carboxylate]
0.503	0.179	CC(C)N1c2nc(Nc3cccc(C(=O)NCCN(C)C)c3)ccc2N(C)C(=O)[C@H]1C [Example 97, N-[2-(dimethylamino)ethyl]-3-{[(3R)-4-isopropyl-1,3-dimethyl-2-oxo-1,2,3,4-tetrahydropyrido[2,3-b]pyrazin-6-yl]amino}benzamide]
0.208	0.598	C[C@@H]1C(=O)N(C)c2ccc(Nc3cccc(C(=O)N(C)C)c3)cc2N1C1CCN(C(=O)OC(C)(C)C)CC1 [Example 105, tert-butyl 4-[(2R)-7-{[3-(dimethylcarbamoyl)phenyl]amino}-2,4-dimethyl-3-oxo-3,4-dihydroquinoxalin-1(2H)-yl]piperidine-1-carboxylate]
6.75	> 40	C[C@H]1C(=O)N(C)c2ccc(Nc3cccc(C(=O)NC4CCN(C)CC4)c3)nc2N1c1ccc(F)cc1 (stereo in doubt) [Example 116, 3-{[(3S)-4-(4-fluorophenyl)-1,3-dimethyl-2-oxo-1,2,3,4-tetrahydropyrido[2,3-b]pyrazin-6-yl]amino}-N-(1-methylpiperidin-4-yl)benzamide]
0.271	0.197	Cc1cccc(N2c3nc(Nc4cccc(S(=O)(=O)N5CCOCC5)c4)ccc3N(C)C(=O)C2C)c1 (stereo not shown) [Example 64, 1,3-dimethyl-4-(3-methylphenyl)-6-{[3-(morpholin-4-ylsulphonyl)phenyl]-amino}-3,4-dihydropyrido[2,3-b]pyrazin-2(1H)-one]
0.81	0.518	COc1c(Nc2ccc3c(n2)N(C2CCOCC2)[C@H](C)C(=O)N3C)cccc1C(=O)NC1CCN(C)CC1 [Example 103, 3-{[(3R)-1,3-dimethyl-2-oxo-4-(tetrahydro-2H-pyran-4-yl)-1,2,3,4-tetrahydropyrido[2,3-b]pyrazin-6-yl]amino}-2-methoxy-N-(1-melhylpiperidin-4-yl)benzamide]
0.143	0.108	CC(C)N1CCN(C(=O)c2cccc(Nc3ccc4c(n3)N(Cc3ccccc3)[C@H](C)C(=O)N4C)c2)CC1 [Example 76, (3R)-4-benzyl-6-({3-[(4-isopropylpiperazin-1-yl)carbonyl]phenyl}-amino)-1,3-dimethyl-3,4-dihydropyrido[2,3-b]pyrazin-2(1H)-one]
0.43	0.332	COc1ccc(C(=O)N[C@H]2CC[C@@H](N3CCN(C4CC4)CC3)CC2)cc1Nc1ccc2c(n1)N(C1CCOCC1)[C@H](C)C(=O)N2C [Example 90, N-[cis-4-(4-cyclopropylpiperazin-1-yl)cyclohexyl]-3-{[(3R)-1,3-dimethyl-2-oxo-4-(tetrahydro-2H-pyran-4-yl)-1,2,3,4-tetrahydropyrido[2,3-b]pyrazin-6-yl]amino}-4-methoxybenzamide]
0.399	0.497	COc1ccc(Nc2ccc3c(n2)N(C2CCOCC2)[C@H](C)C(=O)N3C)cc1C(=O)NC1CCC(N2CCC(F)(F)CC2)CC1 (stereo partly shown) [Example 89]
0.04	–	C[C@@H]1C(=O)N(C)c2ccc(Nc3cccc(S(=O)(=O)N4CC(F)(F)C4)c3)nc2N1C1CCOCC1 [Example 31, (3R)-6-({3-[(3,3-Difluoroazetidin-1-yl)sulphonyl]phenyl}amino)-1,3-dimethyl-4-(tetrahydro-2H-pyran-4-yl)-3,4-dihydropyrido[2,3-b]pyrazin-2(1H)-one]
0.351	–	COc1ccc(C(=O)N[C@H]2CC[C@H](N3CCN(CC4CC4)CC3)CC2)cc1Nc1ccc2c(n1)N(C1CCOCC1)[C@H](C)C(=O)N2C [Example 87, N-{trans-4-[4-(cyclo-propylmethyl)piperazin-1-yl]cyclohexyl}-3-{[(3R)-1,3-dimethyl-2-oxo-4-(tetrahydro-2H-pyran-4-yl)-1,2,3,4-tetrahydropyrido[2,3-b]pyrazin-6-yl]amino}-4-methoxybenzamide]
0.036	–	CC(C)NS(=O)(=O)c1cccc(Nc2ccc3c(n2)N(C2CCOCC2)[C@H](C)C(=O)N3C)c1 [Example 42, 3-{[(3R)-1,3-dimethyl-2-oxo-4-(tetrahydro-2H-pyran-4-yl)-1,2,3,4-tetrahydropyrido[2,3-b]pyrazin-6-yl]amino}-N-isopropylbenzene-sulphonamide]
0.149	–	COc1ccc(C(=O)N[C@H]2CC[C@H](N3CCN(CC4CC4)CC3)CC2)cc1Nc1ccc2c(n1)N(C1CCOCC1)[C@H](C)C(=O)N2C [Example 18, N-{trans-4-[4-(Cyclopropylmethyl)piperazin-1-yl]cyclohexyl}-3-{[(3R)-1,3-dimethyl-2-oxo-4-(tetrahydro-2H-pyran-4-yl)-1,2,3,4-tetrahydropyrido[2,3-b]pyrazin-6-yl]amino}-4-methoxybenzamide]
